Measurements from patent US11504383B2, “Crystalline forms of a Ryanodine receptor modulator and uses thereof” (ARMGO Pharma, Inc., priority 2021, dated 2022).

How the values were obtained:
Type in all cases: physicochemical
[1] = Storage stability of the polymorphs followed by XRD; settings: after 24 months (XRD at 3, 6, 12 and 24 months)
Protocol: The top panel depicts the polymorph at initiation and the bottom three panels depict the polymorph after 24 months. FIG. 5 Panel A: initial control; FIG. 5 Panel B: sample stored for 2 years in open bottle in stability chambers at 25° C./60% relative humidity (RH); FIG. 5 Panel C: sample stored for 2 years in closed bottle in stability chambers at 40° C./75% RH; FIG. 5 Panel D: sample stored for 2 years in open bottle in stability chambers at 40° C./75% RH.
The top panel depicts the polymorph at initiation and the bottom panels depict the polymorph after 3, 6, 12 and 24 months.

[2] = Competitive slurry experiments mixing Form 1 and Form 2 in various solvents; settings: competitive slurry experiments at 15° C. and 40° C.
Protocol: Competitive slurry experiments were performed at 15° C. (Table 5) or 40° C. (Table 6) by mixing Form 1 and Form 2 in various solvents in acetonitrile/water, acetone/water and methanol/water mixtures. […] (Table 5) or 40° C. (Table 6).

[3] = Thermogravimetric analysis (loss of mass before melting/degradation); settings: 25° C. to 250° C. at about 10° C./minute
Protocol: Thermogravimetric analysis (TGA) was performed. A 10 to 20 mg of sample of a crystalline form of 4-[(7-methoxy-2,3-dihydro-1,4-benzothiazepin-4(5H)yl)methyl]benzoic acid hemifumarate was placed into an aluminum pan, with nitrogen purge. The sample was equilibrated at 25° C. in a temperature-controlled chamber. The sample was heated at a scan rate of about 10° C./minute to 250° C. under nitrogen purge. A TGA Q5000 thermogravimetric analysis instrument was used.

## COc1ccc2c(c1)CN(Cc1ccc(C(=O)O)cc1)CCS2.O=C(O)/C=C/C(=O)O [Form 2, 4-[(7-methoxy-2,3-dihydro-1,4-benzothiazepin-4(5H)yl)methyl]benzoic acid, hemifumarate]
[1]
  Stability of the polymorph on storage (XRD, FIG. 10): stable
[2]
  Relative stability of the forms: more stable than Form 1
[3]
  Loss of mass before melting degradation (TGA): < 0.1%
